We go through eight molecules from patent US20130241815A1, “INK CONTAINING ANTHRAQUINONE BASED DYE, DYE USED IN THE INK, AND DISPLAY” (MITSUBISHI CHEMICAL CORPORATION, priority 2010, published 2013).

Assay type in all cases: physicochemical
Data set [1] in a line: Preparation of ink and evaluation of solubility in low polar solvents (saturated solution, absorption maximum, εC). Conditions: for Solubility: saturated solution, room temperature. How it is done: Each of Illustrative Compounds 1 to 4 and Comparative Compounds 1, 2 and 4 was dissolved in each of the solvents of n-decane, tetradecane, ISOPAR M, and ISOPAR G, thereby preparing an ink. On that occasion, the solubility of each of the compounds in each of the solvents was measured in the following manner.
Each of the compounds (dyes) was added to each of the solvents until a dissolution residue was generated, and the contents were ultrasonically treated at a water temperature of 30° C. for 30 minutes. After standing at room temperature for 12 hours, the resultant was subjected to centrifugal filtration with a 0.1 μm filter by using an ultrasmall-sized centrifuge (centrifugal force: 5,200×g). Each of the obtained saturated solutions was diluted with an appropriate concentration, a solubility of each of the dyes was calculated from a relation with a previously measured absorption coefficient, and a product ∈C (cm^−1) of a molar absorption coefficient ∈ (L mole^−1 cm^−1) at the absorption maximum wavelength and a concentration C (mole L^−1) of the saturated solution was determined.

Assay in data set [2]: as above
Conditions: for Absorption maximum wavelength: Decalin solution; for Solubility: Decalin, saturated solution, room temperature.

The nature of data set [3]: Light resistance test (residual rate of dye after 2 h irradiation, 400 W high pressure mercury vapor lamp). Conditions: 1 mg dye in 200 mL, 10 to 30° C. As to the method:
The light resistance of each of the compounds (dyes) was measured in the following manner.
1 mg of each of the compounds (dyes) was dissolved in 200 mL of each of the low polar solvents within a container, thereby preparing an ink. This ink was irradiated with light for 2 hours by using a photoreactor UVL-400HA (400 W high pressure mercury vapor lamp), manufactured by Riko Kagaku Sangyo K.K. During that interval, the container was cooled with a coolant, thereby keeping an internal temperature at from 10 to 30° C. A residual rate of the dye was determined by calculation according to the following expression, thereby evaluating the light resistance.
Residual rate=(Absorbance at the maximum absorption wavelength after irradiation)/(Absorbance at the maximum absorption wavelength before irradiation)

For `CNc1ccc(Nc2ccc(C)cc2)c2c1C(=O)c1ccccc1C2=O` [Comparative Compound 1, C.I. Solvent Blue 11, reference compound], the εC turned out to be 26 cm⁻¹ in data set [1] (Decalin solution), 7 cm⁻¹ in data set [1] (ISOPAR G solution), 7 cm⁻¹ in data set [1] (ISOPAR M solution) and 12 cm⁻¹ in data set [1] (Tetradecane solution). The Absorption maximum wavelength in data set [1] (ISOPAR G solution) is on record as 594 nm; in data set [1] (ISOPAR M solution), 594 nm; in data set [1] (Tetradecane solution), 595 nm; in data set [1] (n-Decane solution) it was “Unmeasurable”; in data set [2], 636 nm. Besides, the Solubility was 0.02 % by mass in data set [1] (ISOPAR G); 0.02 % by mass in data set [1] (ISOPAR M); 0.04 % by mass in data set [1] (Tetradecane); “Low” in data set [1] (n-Decane); 0.07 % by mass in data set [2]. Besides, in data set [1] (n-Decane solution), the “εC (molar absorption coefficient at absorption maximum x concentration of saturated solution)” value is reported as “Low”.
With `CC(C)CNc1ccc(Nc2ccccc2)c2c1C(=O)c1ccccc1C2=O` [Comparative Compound 2, reference compound], in data set [1] (n-Decane solution), the Absorption maximum wavelength was determined as 614 nm and the “εC (molar absorption coefficient at absorption maximum x concentration of saturated solution)” value amounted to 200 cm⁻¹. Further, in data set [1] (n-Decane), the Solubility was 0.7 % by mass.
With `CCCCN(CCCC)c1ccc(N=Nc2nc(C#N)c(C#N)n2CC#N)c(NC(C)=O)c1` [Comparative Compound 3, reference compound], the “Residual rate after light resistance test” value (“Residual rate” below) in data set [3] (n-Decane) worked out at 45%.
As for `C=CCn1c(N=Nc2ccc(N(CCC)CCC)cc2NC(C)=O)nc(C#N)c1C#N` [Comparative Compound 4, reference compound], the εC is 7 cm⁻¹ in data set [1] (Decalin solution), “Low” in data set [1] (ISOPAR G solution), “Low” in data set [1] (ISOPAR M solution) and “Low” in data set [1] (Tetradecane solution). Besides, the Absorption maximum wavelength result in data set [1] (ISOPAR G solution) is “Unmeasurable”; in data set [1] (ISOPAR M solution), “Unmeasurable”; in data set [1] (Tetradecane solution) it was “Unmeasurable”; in data set [1] (n-Decane solution) it was “Unmeasurable”; in data set [2] it was 520 nm. The Solubility entry is recorded as “Low” in data set [1] (ISOPAR G); “Low” in data set [1] (ISOPAR M); “Low” in data set [1] (Tetradecane); “Low” in data set [1] (n-Decane); 0.01 % by mass in data set [2]. The “εC (molar absorption coefficient at absorption maximum x concentration of saturated solution)” value in data set [1] (n-Decane solution) was “Low”.
Consider `CCCCC(CC)CNc1ccc(NCC(CC)CCCC)c2c1C(=O)c1ccccc1C2=O` (stereo not drawn) [Illustrative Compound 1], for which the εC in data set [1] (Decalin solution) is 3400 cm⁻¹; in data set [1] (ISOPAR G solution), 1900 cm⁻¹; in data set [1] (ISOPAR M solution), 1200 cm⁻¹; in data set [1] (Tetradecane solution), 1600 cm⁻¹. The Absorption maximum wavelength is recorded as 649 nm in data set [1] (ISOPAR G solution); 650 nm in data set [1] (ISOPAR M solution); 651 nm in data set [1] (Tetradecane solution); 650 nm in data set [1] (n-Decane solution); 645 nm in data set [2]. The Solubility in data set [1] (ISOPAR G) is on record as 7.3 % by mass; in data set [1] (ISOPAR M) it was 4.2 % by mass; in data set [1] (Tetradecane), 5.7 % by mass; in data set [1] (n-Decane) it was 6.6 % by mass; in data set [2], 9.98 % by mass. Also, the “εC (molar absorption coefficient at absorption maximum x concentration of saturated solution)” value in data set [1] (n-Decane solution) is 2000 cm⁻¹.
Turning to `CCCCC(CC)CNc1ccc(NCC(CC)CCCC)c2c1C(=O)c1ccc(C(=O)OCC)cc1C2=O` (stereo not drawn) [Illustrative Compound 2], in data set [1] (n-Decane solution), the Absorption maximum wavelength amounted to 668 nm and the “εC (molar absorption coefficient at absorption maximum x concentration of saturated solution)” value turned out to be 1000 cm⁻¹. This molecule also gave a Solubility in data set [1] (n-Decane) of 4.7 % by mass.
`CCCCC(CC)CNc1ccc(NCC(CC)CCCC)c2c1C(=O)c1ccc(C(=O)OCC(C)C)cc1C2=O` (stereo not drawn) [Illustrative Compound 3]: the εC in data set [1] (Decalin solution) is 3100 cm⁻¹; in data set [1] (ISOPAR G solution), 2700 cm⁻¹; in data set [1] (ISOPAR M solution), 1400 cm⁻¹; in data set [1] (Tetradecane solution) it was 1200 cm⁻¹. Moreover, the Absorption maximum wavelength is recorded as 667 nm in data set [1] (ISOPAR G solution); 668 nm in data set [1] (ISOPAR M solution); 668 nm in data set [1] (Tetradecane solution); 668 nm in data set [1] (n-Decane solution); 662 nm in data set [2]. For the same molecule, the Solubility stood at 10.8 % by mass in data set [1] (ISOPAR G); 5.1 % by mass in data set [1] (ISOPAR M); 4.7 % by mass in data set [1] (Tetradecane); 7.5 % by mass in data set [1] (n-Decane); 10.0 % by mass in data set [2]. The “εC (molar absorption coefficient at absorption maximum x concentration of saturated solution)” value in data set [1] (n-Decane solution) came out at 1900 cm⁻¹. Moreover, the “Residual rate” value in data set [3] (ISOPAR G) turned out to be 88%; in data set [3] (ISOPAR M), 77%; in data set [3] (Tetradecane), 94%; in data set [3] (n-Decane) it was 78%.
`CCCCC(CC)CNc1ccc(NCC(CC)CCCC)c2c1C(=O)c1ccc(C(=O)OCCC)cc1C2=O` (stereo not drawn) [Illustrative Compound 4]: the Absorption maximum wavelength in data set [1] (ISOPAR G solution) is listed as 666 nm; in data set [1] (ISOPAR M solution), 667 nm; in data set [1] (Tetradecane solution), 668 nm; in data set [1] (n-Decane solution), 668 nm. The εC is 1400 cm⁻¹ in data set [1] (ISOPAR G solution), 1200 cm⁻¹ in data set [1] (ISOPAR M solution) and 1300 cm⁻¹ in data set [1] (Tetradecane solution). In addition, the Solubility in data set [1] (ISOPAR G) is on record as 5.5 % by mass; in data set [1] (ISOPAR M), 4.5 % by mass; in data set [1] (Tetradecane), 4.9 % by mass; in data set [1] (n-Decane), 9.5 % by mass. For the same molecule, in data set [1] (n-Decane solution), the “εC (molar absorption coefficient at absorption maximum x concentration of saturated solution)” value came to 2400 cm⁻¹. Further, the “Residual rate” value came out at 95% in data set [3] (ISOPAR G), 99% in data set [3] (ISOPAR M), 93% in data set [3] (Tetradecane) and 97% in data set [3] (n-Decane).
